Test results from publication PMC4051504, “Structural and functional analysis of the human spliceosomal DEAD-box helicase Prp28” (Acta Crystallographica Section D: Biological Crystallography, 2014).

Molecular target: T1, hPrp28ΔN (Homo sapiens, UniProt Q9BUQ8)
T1 construct: gene DDX23; helicase domain plus short N-terminal extension, residues 338-820; GST tag cleaved with PreScission protease; E. coli BL21 Star (DE3)
T1 sequence (Q9BUQ8 338-820): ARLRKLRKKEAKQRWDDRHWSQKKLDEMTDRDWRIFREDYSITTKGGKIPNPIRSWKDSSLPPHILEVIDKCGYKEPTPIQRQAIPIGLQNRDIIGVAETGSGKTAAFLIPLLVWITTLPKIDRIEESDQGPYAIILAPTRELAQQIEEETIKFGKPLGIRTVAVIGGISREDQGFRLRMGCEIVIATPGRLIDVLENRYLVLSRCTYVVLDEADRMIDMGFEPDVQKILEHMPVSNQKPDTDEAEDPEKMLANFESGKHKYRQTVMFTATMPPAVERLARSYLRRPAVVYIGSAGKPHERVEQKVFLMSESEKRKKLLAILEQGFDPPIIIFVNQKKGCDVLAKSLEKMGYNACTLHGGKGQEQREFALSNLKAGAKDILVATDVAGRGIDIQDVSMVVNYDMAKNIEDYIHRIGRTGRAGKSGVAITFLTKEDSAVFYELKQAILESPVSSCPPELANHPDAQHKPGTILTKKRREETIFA
Assay: fluorescence titration, Trp emission at […] nm (excitation […] nm)
Type: binding

Kd: > 400 µM
Compound: CNc1ccccc1C(=O)O[C@H]1[C@@H](O)[C@H](n2cnc3c(N)ncnc32)O[C@@H]1CO[P@@](=O)(O)O[P@](=O)(O)OP(=O)(O)O [mant-ATP]
